Test results from US20030113267A1, “Colon contrast enhanced imaging” (priority 1999, published 2003).

Legend:
[1] = MRI signal intensity over time in liver parenchyma, healthy volunteers; assay type: in vivo, human; settings: average of six healthy volunteers, 0.1 mmol/kg i.v., FIG. 1
Experimental: (§1) The trial was conducted in six healthy volunteers aged between 22 and 29 years. The contrast agent used was Gd-BOPTA meglumine salt (MultiHance™), administered intravenously at a dose of 0.1 mmol/kg of body weight. The successive recording of images of the abdomen was performed 1, 12, 24, 36, 48, 70 and 105 hours after administration of the agent using the following 3D angio-sequence: 3D FLASH; TR 4.6 ms; TE 1.8 ms; α 50° C.; rect. FOV 390 mm (6/8); Ma: 215×512; acq 28 s; slab thickness 120 mm; 42 sections. Three volunteers were re-tested 14 days after administration of the agent.
(§2) T1-weighted axial images of the liver and abdomen were recorded in addition to the 3D angio-sequences referred to above.
(§3) The visualisation procedure was conducted with an MRI scanner operating at 1.5 Tesla (Magneton Vision Plus, Siemens Medical Systems, Erlangen, Germany) equipped with a phased array body coil.
(§4) Before performing colonography, it was possible to investigate liver function by recording the signal intensity in the liver parenchyma and gall bladder in the first few hours after administration of the contrast agent. […] This seems to be the ideal period for recording three-dimensional MRI colonography.

[2] = cited from earlier work
[3] = MRI signal intensity over time in gall bladder, healthy volunteers; assay type: in vivo, human
Experimental: as §1, §2, §3, §4

[4] = in man; cited from earlier work
[5] = 3D angiographic MRI colonography in healthy volunteers after intravenous injection; assay type: in vivo, human
From the text: Description of method of acquisition of MRI images of the luminal part of the colon using the three-dimensional angiography technique in healthy volunteers after intravenous injection of MultiHance™ (Gd-BOPTA meglumine salt).
A three-dimensional angiographic imaging technique was used because it provides advantageous visualisation of large regions of the anatomy, especially when associated with administration of contrast agents which are particularly effective in reducing the T1 relaxation times in standard MRI investigations.
In the trial conducted, the increased contrast in the hepatobiliary system and the gastrointestinal system was obtained with this kind of diagnostic technique, which produced up to 42 images of a three-dimensional volume measuring 40×32×12 cm in a single breath-hold.
as §1, §2, §3
The images were processed with standard MIP software on a dedicated 3D MR workstation (Virtuoso, Siemens Medical System).
No preparation, medication or joint administration of other drugs or other contrast media was performed on the volunteers studied.

Compound: CNC[C@H](O)[C@@H](O)[C@H](O)[C@H](O)CO.CNC[C@H](O)[C@@H](O)[C@H](O)[C@H](O)CO.O=C([O-])CN(CCN(CC(=O)[O-])CC(=O)O)CCN(CC(=O)O)C(COCc1ccccc1)C(=O)[O-].[Gd+3] (centres unmarked) [MultiHance, gadobenate dimeglumine]
- time for signal intensity to be halved in liver parenchyma [1]: ≤ 10 h
- solubility in water [2]: soluble in water
- enhancement within the gallbladder ([3]; 24 hours after injection of 0.1 mmol/kg BW, FIG. 2): still intense enhancement
- half-life of signal intensity in gall bladder ([3]; average of six healthy volunteers, 0.1 mmol/kg i.v., FIG. 1): 15 h
- proportion excreted by the biliary route [4]: 2-4%
- time after which a partial increase of intraluminal signal was still detectable ([5]; 0.1 mmol/kg i.v.): 8 days
- homogeneity of contrast in the lumen ([5]; 0.1 mmol/kg i.v., faeces present, no preparation): homogenous contrast in the lumen
- signal in the colon, 3D MR colonography ([5]; 24 hours after injection of 0.1 mmol/kg BW, no bowel preparation, FIG. 2): Homogenous signal can be seen in all segments of the colon
- time to intense increase in intraluminal contrast after administration ([5]; all six healthy volunteers, 0.1 mmol/kg i.v., no bowel preparation): ≤ 24 h
- time after administration at which an intense intraluminal signal was still detected in the colon ([5]; in some patients, 0.1 mmol/kg i.v.): ≤ 100 h
- intraluminal contrast after intravenous administration ([5]; intravenous administration, contrast recorded in the colon): substantial increase in intraluminal contrast
